Measured values taken from ChEMBL document CHEMBL1123023, “Syntheses and differentiating action of vitamin D endoperoxides. Singlet oxygen adducts of vitamin D derivatives in human myeloid leukemia cells (HL-60)” (1985).

What was measured:
HL-60 = assay: Evaluated for its ability to induce phagocytosis in human myeloid leukemia cells (HL-60); type: functional; set-up: unit not given here
[1] = molecular target: T1, Vitamin D3 receptor (Homo sapiens) (UniProt P11473)
T1 sequence (whole entry): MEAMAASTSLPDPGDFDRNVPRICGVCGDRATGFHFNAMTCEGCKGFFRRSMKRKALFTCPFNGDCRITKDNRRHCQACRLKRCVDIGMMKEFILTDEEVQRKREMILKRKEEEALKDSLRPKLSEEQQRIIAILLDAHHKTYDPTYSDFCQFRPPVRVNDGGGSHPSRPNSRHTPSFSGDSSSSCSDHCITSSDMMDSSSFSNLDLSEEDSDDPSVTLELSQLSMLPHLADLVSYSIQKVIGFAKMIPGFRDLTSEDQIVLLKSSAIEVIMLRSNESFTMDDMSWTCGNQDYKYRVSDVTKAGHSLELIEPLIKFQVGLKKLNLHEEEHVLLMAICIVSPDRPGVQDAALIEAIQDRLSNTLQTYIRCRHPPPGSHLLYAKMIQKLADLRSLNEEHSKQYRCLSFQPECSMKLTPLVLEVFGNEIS
Description: Evaluated for its binding affinity towards cytosol receptor in human myeloid leukemia cells (HL-60), by using 1-alpha,25-(OH)2D3 as radioligand

Row | SMILES | Phagocytosis (HL-60) | Binding activity [1]
1 | C[C@H](CCCC(C)(C)O)[C@H]1CC[C@H]2/C(=C/[C@@H]3OOCC4=C3C[C@@H](O)CC4)CCC[C@]12C | 130 | 3000
2 | C=C1/C(=C\C=C2/CCC[C@]3(C)[C@@H]([C@H](C)CC[C@@H](O)C(C)C)CC[C@@H]23)C[C@@H](O)C[C@@H]1O [TACALCITOL] | 1 | 1
3 | C[C@H](CCCC(C)(C)O)[C@H]1CC[C@H]2/C(=C/[C@@H]3OOCC4=C3C[C@@H](O)C[C@@H]4O)CCC[C@]12C | 200 | 800
4 | C=C1CC[C@H](O)C/C1=C/C=C1\CCC[C@]2(C)[C@@H]([C@H](C)CCC(F)(F)C(C)(C)O)CC[C@@H]12 | 200 | 1000
5 | CC(C)CCC[C@@H](C)[C@H]1CC[C@H]2/C(=C/[C@H]3OOCC4=C3C[C@@H](O)C[C@@H]4O)CCC[C@]12C | >1000 | > 10000
6 | C=C1/C(=C\C=C2/CCC[C@]3(C)[C@@H]([C@H](C)CCCC(C)C)CC[C@@H]23)C[C@@H](O)C[C@@H]1O [ALFACALCIDOL] | 320 | 800
7 | C=C1CC[C@H](O)C/C1=C/C=C1\CCC[C@]2(C)[C@@H]([C@H](C)CCCC(C)(C)O)CC[C@@H]12 [CALCIFEDIOL ANHYDROUS] | 320 | 600
8 | C[C@H](CCCC(C)(C)O)[C@H]1CC[C@H]2/C(=C/[C@H]3OOCC4=C3C[C@@H](O)C[C@@H]4O)CCC[C@]12C | 130 | 800
9 | C=C1/C(=C\C=C2/CCC[C@]3(C)[C@@H]([C@H](C)CCCC(C)(C)O)CC[C@@H]23)C[C@@H](O)C[C@@H]1O [CALCITRIOL] | 1 | 
10 | CC(C)CCC[C@@H](C)[C@H]1CC[C@H]2/C(=C/[C@@H]3OOCC4=C3C[C@@H](O)C[C@@H]4O)CCC[C@]12C | >1000 | > 10000
11 | CC(C)[C@H](O)CC[C@@H](C)[C@H]1CC[C@H]2/C(=C/[C@H]3OOCC4=C3C[C@@H](O)C[C@@H]4O)CCC[C@]12C | 150 | 800
12 | C[C@H](CCCC(O)(C(F)(F)F)C(F)(F)F)[C@H]1CC[C@H]2/C(=C/[C@@H]3OOCC4=C3C[C@@H](O)CC4)CCC[C@]12C.C[C@H](CCCC(O)(C(F)(F)F)C(F)(F)F)[C@H]1CC[C@H]2/C(=C/[C@H]3OOCC4=C3C[C@@H](O)CC4)CCC[C@]12C | 30 | 1500
13 | C[C@H](CCCC(C)(C)O)[C@H]1CC[C@H]2/C(=C/[C@H]3OOCC4=C3C[C@@H](O)CC4)CCC[C@]12C | 120 | 3000
14 | C[C@H](CCC(F)(F)C(C)(C)O)[C@H]1CC[C@H]2/C(=C/[C@@H]3OOCC4=C3C[C@@H](O)CC4)CCC[C@]12C.C[C@H](CCC(F)(F)C(C)(C)O)[C@H]1CC[C@H]2/C(=C/[C@H]3OOCC4=C3C[C@@H](O)CC4)CCC[C@]12C | 45 | 1000
15 | C=C1CC[C@H](O)C/C1=C/C=C1\CCC[C@]2(C)[C@@H]([C@H](C)CCCC(O)(C(F)(F)F)C(F)(F)F)CC[C@@H]12 | 200 | 50
16 | CC(C)[C@H](O)CC[C@@H](C)[C@H]1CC[C@H]2/C(=C/[C@@H]3OOCC4=C3C[C@@H](O)C[C@@H]4O)CCC[C@]12C | 200 | 800
